# Measurements from patent US20220304978A1, “INHIBITING MESANGIAL CELL ACTIVATION” (Chinook Therapeutics, Inc., priority 2019, published 2022).
# Tested on: kidney tissue of g-ddY mice
# Test: RNA-seq differential gene expression in kidney tissue of g-ddY mice
# Type: in vivo, mouse
# Method: RNA isolation and sequencing libraries were generated using standard protocols. Sequencing was performed using an Illumina NextSeq500 using manufacturer's instructions with a read length of 75 bp and a read depth of 30 million. Raw data was assembled to FASTQ files. Following QC analysis, high quality sequencing reads (e.g., reads with a Phred quality score >36) were aligned to the mouse reference genome (GRCm38-mm10) using the default parameters of the align algorithm and transcript count tables of each library was generated using the default parameters of the featureCounts algorithm of the RSubread package (Liao Y, Smyth GK, Shi W, 2019). High quality sequencing reads mapped to 27,129 genes. Following additional QC of low count filtering (i.e. transcripts <10 counts across all samples), 16,207 genes were identified and used for further analysis. The remaining sequencing read counts of the included 16,207 genes were normalized to library size, log-transformed, and were quantified as counts per million (CPM). Select RNA-seq counts were validated using qPCR. Sequencing read counts (CPM) were used for identification of differential gene expression between specified populations using the quasi-likelihood methodology of the edgeR package. […] MA plots were generated using edgeR. Heatmaps and other plots were generated using the gplots and ggplot2 package.
# [1] = 10 mg/kg/day vs control, IL6 signaling
# [2] = 10 mg/kg/day vs control, NF-kB signaling
# [3] = 10 mg/kg/day vs control, PDGF signaling
# [4] = 10 mg/kg/day vs control, cell proliferation signaling
# [5] = 10 mg/kg/day vs control, inflammatory response signaling
# [6] = 10 mg/kg/day vs control, mesangial cell signature
# [7] = 20 mg/kg/day vs control, IL6 signaling
# [8] = 20 mg/kg/day vs control, NF-kB signaling
# [9] = 20 mg/kg/day vs control, PDGF signaling
# [10] = 20 mg/kg/day vs control, cell proliferation signaling
smiles,measurement,setting,value
"CCCCN(CCCC)C(=O)CN1C[C@H](c2ccc3c(c2)OCO3)[C@@H](C(=O)O)[C@@H]1c1ccc(OC)cc1 [atrasentan, (2R,3R,4S)-4-(1,3-benzodioxol-5-yl)-1-[2-(dibutylamino)-2-oxoethyl]-2-(4-methoxyphenyl)pyrrolidine-3-carboxylic acid]",Cntfr logFC,[1],−0.8669
same,Csf1 logFC,[1],−0.8332
same,Il1b logFC,[1],−1.684
same,Il1r1 logFC,[1],−0.2988
same,Il2ra logFC,[1],−0.8599
same,Map3k8 logFC,[1],−0.3558
same,Ackr3 logFC,[2],0.2851
same,Atf3 logFC,[2],−1.514
same,Btg1 logFC,[2],−0.3745
same,Btg2 logFC,[2],−0.424
same,Ccl20 logFC,[2],−1.273
same,Ccnd1 logFC,[2],0.453
same,Cdkn1a logFC,[2],0.5583
same,Csf1 logFC,[2],−0.8332
same,Cxcl2 logFC,[2],−1.19
same,Dnajb4 logFC,[2],−0.3683
same,Edn1 logFC,[2],−1.006
same,Efna1 logFC,[2],0.6938
same,Ehd1 logFC,[2],0.2563
same,F3 logFC,[2],−0.4963
same,Fosl2 logFC,[2],−0.8662
same,Id2 logFC,[2],0.1663
same,Ifit2 logFC,[2],−0.471
same,Il1b logFC,[2],−1.684
same,Jag1 logFC,[2],−0.4199
same,Klf2 logFC,[2],−0.4894
same,Klf4 logFC,[2],−0.5493
same,Map3k8 logFC,[2],−0.3558
same,Nfat5 logFC,[2],−0.3118
same,Nfkb1 logFC,[2],−0.3424
same,Nfkbia logFC,[2],−0.5525
same,Nr4a2 logFC,[2],−1.3802
same,Nr4a3 logFC,[2],−1.143
same,Per1 logFC,[2],−0.4162
same,Pfkfb3 logFC,[2],−1.166
same,Pnrcl logFC,[2],0.2635
same,Rel logFC,[2],−0.7218
same,Rhob logFC,[2],−0.533
same,Serpine1 logFC,[2],−0.7169
same,Snn logFC,[2],0.3517
same,Spsb1 logFC,[2],−0.6157
same,Tnfaip8 logFC,[2],0.273
same,Traf1 logFC,[2],−0.5182
same,Trib1 logFC,[2],−0.6481
same,Zbtb10 logFC,[2],−0.2335
same,Hras logFC,[3],0.1887
same,Map3k1 logFC,[3],−0.3825
same,Nfkb1 logFC,[3],−0.3424
same,Nfkbia logFC,[3],−0.5525
same,Pdgfb logFC,[3],−0.3414
same,Pdgfra logFC,[3],−0.51
same,Pik3cg logFC,[3],−0.5882
same,Pik3r1 logFC,[3],−0.4253
same,Pla2g4a logFC,[3],−0.6999
same,Tiam1 logFC,[3],−0.7456
same,Arid4a logFC,[4],−0.2777
same,Atrx logFC,[4],−0.2463
same,Bcar1 logFC,[4],0.3379
same,Ccdc88a logFC,[4],−0.5602
same,Ccnd1 logFC,[4],0.453
same,Cep192 logFC,[4],−0.4211
same,Cntrl logFC,[4],−0.289
same,Dmd logFC,[4],−0.3335
same,Epb41l2 logFC,[4],−0.4376
same,Fgd6 logFC,[4],−0.2369
same,Flna logFC,[4],−0.4162
same,Itsn1 logFC,[4],−0.2276
same,Kmt5a logFC,[4],0.2601
same,Meis1 logFC,[4],−0.2507
same,Myh9 logFC,[4],−0.2093
same,Myh10 logFC,[4],−0.3068
same,Myo1e logFC,[4],−0.2349
same,Nin logFC,[4],−0.3393
same,Ophn1 logFC,[4],−0.4999
same,Rapgef5 logFC,[4],−0.2732
same,Rhot2 logFC,[4],0.4727
same,Slc7a1 logFC,[4],−0.396
same,Slc12a2 logFC,[4],−0.2507
same,Slc38a1 logFC,[4],−0.4971
same,Smc3 logFC,[4],−0.2304
same,Sorbs2 logFC,[4],−0.3958
same,Tiam1 logFC,[4],−0.7456
same,Tuba4a logFC,[4],0.2738
same,Vcl logFC,[4],−0.2001
same,Ythdc1 logFC,[4],−0.1936
same,Btg2 logFC,[5],−0.424
same,Ccl20 logFC,[5],−1.273
same,Cdkn1a logFC,[5],0.5583
same,Chst2 logFC,[5],−0.5212
same,Csf1 logFC,[5],−0.8332
same,Edn1 logFC,[5],−1.006
same,Eif2ak2 logFC,[5],−0.272
same,F3 logFC,[5],−0.4963
same,Gabbr1 logFC,[5],−0.02473
same,Hpn logFC,[5],0.4007
same,Il1b logFC,[5],−1.684
same,Il1r1 logFC,[5],−0.2988
same,Ly6e logFC,[5],0.1666
same,Nfkb1 logFC,[5],−0.3424
same,Nfkbia logFC,[5],−0.5525
same,Rnf144b logFC,[5],−0.7108
same,Ros1 logFC,[5],−2.078
same,Serpine1 logFC,[5],−0.7169
same,Slc4a4 logFC,[5],0.5123
same,Slc7a1 logFC,[5],−0.396
same,Slc7a2 logFC,[5],−0.8315
same,Slc11a2 logFC,[5],0.3192
same,Ahnak logFC,[6],−0.5756
same,Akap12 logFC,[6],−0.2687
same,Akt3 logFC,[6],−0.3863
same,Aldob logFC,[6],0.4194
same,Ankrd12 logFC,[6],−0.2824
same,C7 logFC,[6],−0.7767
same,Cald1 logFC,[6],−0.3719
same,Cblb logFC,[6],−0.082
same,Ebf1 logFC,[6],−0.3301
same,Epb41l2 logFC,[6],−0.4375
same,Ets1 logFC,[6],−0.2198
same,Fchsd2 logFC,[6],−0.2564
same,Frmd4a logFC,[6],−0.2838
same,Gata3 logFC,[6],−0.4822
same,Gpx3 logFC,[6],0.6802
same,Igfbp7 logFC,[6],0.2052
same,Lama2 logFC,[6],−0.2955
same,Maml2 logFC,[6],−0.2318
same,Meis1 logFC,[6],−0.2507
same,Myh9 logFC,[6],−0.2094
same,Myo1e logFC,[6],−0.2349
same,Nbea logFC,[6],−0.2819
same,Nfkbia logFC,[6],−0.5525
same,Piezo2 logFC,[6],−0.4078
same,Postn logFC,[6],−1.385
same,Pparg logFC,[6],−0.6129
same,Ppp1r12a logFC,[6],−0.1995
same,Prkg1 logFC,[6],−0.2187
same,Psd3 logFC,[6],−0.3544
same,Ptprm logFC,[6],−0.2614
same,Rapgef5 logFC,[6],−0.2732
same,Raph1 logFC,[6],−0.2965
same,Rbms3 logFC,[6],−0.5749
same,Robo1 logFC,[6],−0.4803
same,Stard13 logFC,[6],−0.7224
same,Tacc1 logFC,[6],−0.2449
same,Tcf4 logFC,[6],−0.2176
same,Tjp1 logFC,[6],−0.2489
same,Tns3 logFC,[6],−0.2638
same,Unc5c logFC,[6],0.5618
same,Utrn logFC,[6],−0.49
same,Cntfr logFC,[7],−0.8574
same,Csf1 logFC,[7],−1.089
same,Il1r1 logFC,[7],−0.8263
same,Il2ra logFC,[7],−0.959
same,Map3k8 logFC,[7],−0.8222
same,Ackr3 logFC,[8],0.4917
same,Atf3 logFC,[8],−2.107
same,Btg1 logFC,[8],−0.5187
same,Btg2 logFC,[8],−0.6974
same,Ccn1 logFC,[8],−1.087
same,Ccnd1 logFC,[8],0.644
same,Cdkn1a logFC,[8],0.2546
same,Csf1 logFC,[8],−1.089
same,Cxcl2 logFC,[8],−2.5772
same,Dnajb4 logFC,[8],−0.3548
same,Edn1 logFC,[8],−1.328
same,Efna1 logFC,[8],0.286
same,Ehd1 logFC,[8],0.2715
same,F3 logFC,[8],−0.5235
same,Fosl2 logFC,[8],−1.122
same,Gem logFC,[8],−1.237
same,Id2 logFC,[8],0.2228
same,Ifit2 logFC,[8],−0.6323
same,Jag1 logFC,[8],−0.3939
same,Klf2 logFC,[8],−0.4816
same,Klf4 logFC,[8],−0.904
same,Map3k8 logFC,[8],−0.8222
same,Nfat5 logFC,[8],−0.323
same,Nfkb1 logFC,[8],−0.616
same,Nfkbia logFC,[8],−0.7041
same,Nr4a1 logFC,[8],−1.621
same,Nr4a2 logFC,[8],−1.111
same,Nr4a3 logFC,[8],−1.113
same,Per1 logFC,[8],−0.1216
same,Pfkfb3 logFC,[8],−1.125
same,Pnrcl logFC,[8],0.04156
same,Rel logFC,[8],−1.0782
same,Rhob logFC,[8],−0.5419
same,Serpine1 logFC,[8],−1.501
same,Snn logFC,[8],0.4753
same,Spsb1 logFC,[8],−0.654
same,Tnfaip8 logFC,[8],0.4
same,Traf1 logFC,[8],−1.485
same,Trib1 logFC,[8],−0.7668
same,Zbtb10 logFC,[8],−0.2586
same,Hras logFC,[9],0.06802
same,Map3k1 logFC,[9],−0.7203
same,Nfkb1 logFC,[9],−0.616
same,Nfkbia logFC,[9],−0.7041
same,Pdgfb logFC,[9],−0.8375
same,Pdgfra logFC,[9],−0.658
same,Pik3cg logFC,[9],−1.096
same,Pik3r1 logFC,[9],−0.4284
same,Pla2g4a logFC,[9],−0.8381
same,Tiam1 logFC,[9],−0.9494
same,Arid4a logFC,[10],−0.196
same,Atrx logFC,[10],−0.2188
same,Bcar1 logFC,[10],0.346
same,Ccdc88a logFC,[10],−0.6374
same,Ccnd1 logFC,[10],0.644
same,Cep192 logFC,[10],−0.4173
same,Cntrl logFC,[10],−0.3963
same,Dmd logFC,[10],−0.3485
same,Epb41l2 logFC,[10],−0.6149
same,Fgd6 logFC,[10],−0.3419
same,Flna logFC,[10],−0.7842
same,Itsn1 logFC,[10],−0.2752
same,Kmt5a logFC,[10],0.2873
same,Meis1 logFC,[10],−0.3593
same,Myh9 logFC,[10],−0.4543
same,Myh10 logFC,[10],−0.1801
same,Myo1e logFC,[10],−0.292
same,Nin logFC,[10],−0.4236
same,Ophn1 logFC,[10],−0.7587
